# Data published in paper PMC9611727, “Optimization of a Novel Mandelamide-Derived Pyrrolopyrimidine Series of PERK Inhibitors” (Pharmaceutics, 2022).
# Experiments:
# [1] = tested on: MOLM-13 (FLT3-ITD); experiment: Cell viability assay, MOLM-13; type: cell-based; conditions: Homo sapiens
# [2] = tested on: Kasumi-1 (FLT3wt); experiment: Cell viability assay, Kasumi-1; type: cell-based; conditions: Homo sapiens
# [3] = target: T1, PERK (Homo sapiens, UniProt Q9NZJ5); experiment: PERK biochemical LanthaScreen TR-FRET assay (GFP-eIF2a phosphorylation); conditions: cell-free TR-FRET, GFP-eIF2a substrate; read-out: PERK IC50
# T1 sequence (Q9NZJ5 30-1116): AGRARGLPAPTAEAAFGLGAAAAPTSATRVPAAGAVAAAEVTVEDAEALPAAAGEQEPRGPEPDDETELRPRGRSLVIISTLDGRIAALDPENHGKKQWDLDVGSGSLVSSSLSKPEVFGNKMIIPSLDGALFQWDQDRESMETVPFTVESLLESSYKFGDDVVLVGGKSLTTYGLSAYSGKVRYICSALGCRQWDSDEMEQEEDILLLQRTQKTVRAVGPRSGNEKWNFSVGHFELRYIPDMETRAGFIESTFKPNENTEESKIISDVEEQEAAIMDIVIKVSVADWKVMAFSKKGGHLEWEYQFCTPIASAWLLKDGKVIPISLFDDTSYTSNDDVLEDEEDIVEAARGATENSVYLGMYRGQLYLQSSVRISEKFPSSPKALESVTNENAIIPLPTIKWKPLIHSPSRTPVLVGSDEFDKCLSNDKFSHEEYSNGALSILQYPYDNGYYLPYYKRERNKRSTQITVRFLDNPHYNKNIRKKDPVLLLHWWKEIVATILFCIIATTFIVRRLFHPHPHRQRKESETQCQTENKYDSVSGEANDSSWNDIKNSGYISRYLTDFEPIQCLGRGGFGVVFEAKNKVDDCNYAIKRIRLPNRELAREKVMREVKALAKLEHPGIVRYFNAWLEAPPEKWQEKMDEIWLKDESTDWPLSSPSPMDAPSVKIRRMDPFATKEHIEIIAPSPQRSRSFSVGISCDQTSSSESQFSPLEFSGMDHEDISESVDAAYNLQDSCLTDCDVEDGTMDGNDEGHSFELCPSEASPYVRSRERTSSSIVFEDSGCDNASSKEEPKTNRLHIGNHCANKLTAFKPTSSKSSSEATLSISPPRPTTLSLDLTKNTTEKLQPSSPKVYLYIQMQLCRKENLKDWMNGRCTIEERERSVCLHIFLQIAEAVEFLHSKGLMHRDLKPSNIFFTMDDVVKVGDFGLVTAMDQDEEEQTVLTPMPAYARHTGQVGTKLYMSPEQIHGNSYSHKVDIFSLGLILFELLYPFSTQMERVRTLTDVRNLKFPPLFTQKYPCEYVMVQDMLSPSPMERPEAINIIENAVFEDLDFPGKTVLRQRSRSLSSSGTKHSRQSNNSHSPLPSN
# Method: Methods used to evaluate biochemical PERK activity are described and published elsewhere. In brief, biochemical PERK activity is evaluated using a LanthaScreenTM ([…]) TR-FRET assay to detect phosphorylation of a GFP-tagged eIF2a substrate (ThermoFisher). Excitation at […] of a terbium chelate donor fluorophore in an eIF2a antibody results in energy transfer to GFP acceptor fluorophore upon eIF2a phosphorylation by PERK. Reaction buffer was composed of 50 mM HEPES (pH 7.4), 10 mM MgCl2, 1 mM EGTA and 0.01% (v/v) BrijTM-35. Reactions were initiated by the addition of substrate and ATP, followed by incubation for 1 h at RT prior to addition of EDTA and the anti-peIF2a antibody. FRET was measured by an EnVision Plate Reader (PerkinElmer). Data were plotted as percent inhibition along a 10-point 3-fold dilution series of inhibitors. IC50 values were calculated using 4-parameter logistical fitting in XLFit.
# (§1) The PERK activity of analog I was evaluated using cell-free biochemical assays. In these assays, PERK phosphorylation of eIF2a was assessed using a FRET-based labelled protein assay. Compounds were then evaluated for cellular activity by quantifying inhibition of eIF2a phosphorylation in HEK293 cells treated with the ER inducer tunicamycin [7].
# [4] = tested on: p-eIF2α; experiment: Cellular PERK inhibition: p-eIF2a TR-FRET in tunicamycin-treated HEK293-EGFP-eIF2a cells; type: cell-based; conditions: Homo sapiens; HEK293 cells, tunicamycin-induced ER stress; read-out: p-eIF2α IC50
# Method: Methods used to evaluate in vitro cellular PERK inhibition are described and published elsewhere. In brief, stableHEK293 cells were created using lentiviral particles harboring a GFP-eIF2a expression vector. Transfectants were selected by puromycin and enriched using fluorescent cell sorting based on GFP expression. HEK293-EGFP-eIF2a cells were plated at 5000 cells/well in 384-well assay plates and incubated overnight. The following day, pyrrolopyrimidine analogs were added to wells using an Echo acoustic dispenser and incubated for 30 min. ER stress was induced by the addition of tunicamycin to the wells at […] for 2 h. Cells were lysed and peIF2a was evaluated using a TR-FRET system, as described above.
# as §1
Compound,IC50 [1],IC50 [3],IC50 [4],IC50 [2]
Cc1nc(N)c2c(-c3ccc(NC(=O)[C@H](O)c4cccc(S(C)(=O)=O)c4)cc3C)cn(C)c2n1 [Compound 37],–,> 1000 nM,> 10000 nM,–
Cc1cc(NC(=O)Nc2ccccc2)ccc1-c1cn(C)c2ncnc(N)c12 [Compound 19],–,21 nM,211 nM,–
Cc1nc(N)c2c(-c3ccc(NC(=O)[C@H](O)c4cc(F)cc(C#N)c4)cc3C)cn(C)c2n1 [Compound 42],–,4.2 nM,32 nM,–
Cc1cc(NC(=O)N(C)c2ccccc2)ccc1-c1cn(C)c2ncnc(N)c12 [Compound 20],–,108 nM,1750 nM,–
Cc1cc(NC(=O)[C@H](O)c2ccccc2)ccc1-c1cn(C)c2ncnc(N)c12 [Compound 13],–,1.8 nM,23 nM,–
Cc1nc(N)c2c(-c3ccc(NC(=O)[C@H](O)c4cncc(F)c4)cc3C)cn(C)c2n1 [Compound 43],–,52 nM,562 nM,–
Cc1nc(N)c2c(-c3ccc(NC(=O)[C@H](O)c4cncc(C(F)(F)F)c4)cc3C)cn(C)c2n1 [Compound 45],–,19 nM,165 nM,–
Cc1nc(N)c2c(-c3ccc(NC(=O)[C@H](O)c4ccccc4Cl)cc3C)cn(C)c2n1 [Compound 29],–,107 nM,713 nM,–

# Second part, led by results:
IC50 [1],IC50 [3],IC50 [4],Compound,IC50 [2]
14 nM,–,–,CCc1nc(C(N)=O)c(Nc2ccc(N3CCC(N4CCN(C)CC4)CC3)c(OC)c2)nc1NC1CCOCC1 [Gilteritinib],478 nM
–,13 nM,51 nM,Cc1nc(N)c2c(-c3ccc(NC(=O)[C@H](O)c4cccc(C(F)(F)F)c4)nc3C)cn(C)c2n1 [Compound 73],–
3 nM,–,–,CC1(COc2ccc3c(c2)ncn3-c2ccc3cccc(N4CCC(N)CC4)c3n2)COC1 [Crenolanib],80 nM
–,1 nM,34 nM,Cc1nc(N)c2c(-c3cc(F)c(NC(=O)C(O)c4cccc(F)c4)cc3F)cn(C)c2n1 (centres unmarked) [Compound 71],–
–,22 nM,78 nM,Cc1nc(N)c2c(-c3c(C)cc(NC(=O)C(O)c4cccc(F)c4)cc3F)cn(C)c2n1 (centres unmarked) [Compound 67],–
–,17 nM,105 nM,Cc1nc(N)c2c(-c3ccc(NC(=O)[C@H](O)c4cccc(F)c4)nc3C)cn(C)c2n1 [Compound 72],–
–,6.8 nM,95 nM,Cc1nc(N)c2c(-c3cnc(NC(=O)[C@H](O)c4cccc(C(F)(F)F)c4)cc3C)cn(C)c2n1 [Compound 75],–
–,2.8 nM,13 nM,Cc1nc(N)c2c(-c3ccc(NC(=O)[C@H](O)c4cccc(C(F)(F)F)c4)cc3)cn(C)c2n1 [Compound 63],–
